The source of these data is patent US20250082585A1, “METHOD FOR STORING REDUCED COENZYME Q10” (KANEKA CORPORATION, priority 2021, published 2025).

The series can be described thus: Evaluation of oxidation stability (QH residual rate after storage, QH ratio by HPLC). It is filed as physicochemical. On the procedure:
The weight ratio of reduced coenzyme Q10 to total coenzyme Q10 (namely, reduced coenzyme Q10/(oxidized coenzyme Q10+reduced coenzyme Q10)) is defined as “QH ratio”. The QH ratio was determined by the following HPLC analysis. For the evaluation of oxidation stability, a rate of the change in the QH ratio at the end of the evaluation from that at the beginning of the evaluation was defined as “QH residual rate”, and the QH residual rate determined by the following expression was used as a measure of oxidation stability.
QH residual rate (%)=100×QH ratio at the end of the evaluation/QH ratio at the beginning of the evaluation […]
In a glass vial (volume 33 ml), 0.1 g of the QH Form I crystal was placed. […] The glass vial was sealed, and stored under a temperature of 40° C. and a relative humidity of 75% for 2 weeks, after which the QH residual rate was determined.
In a glass vial, 0.2 g of the QH Form I crystal was placed. The glass vial was opened, and stored under a temperature of 40° C. and a relative humidity of 11% for 2 weeks, after which the QH residual rate was determined.
In a glass vial (volume 33 ml), 0.1 g of the QH Form I crystal was placed. […] The glass vial was sealed, and stored under a temperature of 25° C. and a relative humidity of 60% for 4 weeks, after which the QH residual rate was determined. […]

Regarding `COc1c(O)c(C)c(C/C=C(\C)CC/C=C(\C)CC/C=C(\C)CC/C=C(\C)CC/C=C(\C)CC/C=C(\C)CC/C=C(\C)CC/C=C(\C)CC/C=C(\C)CCC=C(C)C)c(O)c1OC` [Comparative Example 1, reduced coenzyme Q10], the QH residual rate (0.2 g QH Form I crystal without water, opened glass vial, 40° C., relative humidity 11%, 2 weeks) was 34.9%.
Take `COc1c(O)c(C)c(C/C=C(\C)CC/C=C(\C)CC/C=C(\C)CC/C=C(\C)CC/C=C(\C)CC/C=C(\C)CC/C=C(\C)CC/C=C(\C)CC/C=C(\C)CCC=C(C)C)c(O)c1OC` [Comparative Example 2, reduced coenzyme Q10]: the QH residual rate (0.1 g QH Form I crystal, with aqueous solution of Table 3 or without (comparative), sealed glass vial, 25° C., relative humidity 60%, 4 weeks) is 33.3%.
